# In patent publication US20220339141A1, “COMBINATION TREATMENT WITH A P53 REACTIVATOR AND AN INHIBITOR OF AN ANTIAPOPTOTIC BCL-2 FAMILY PROTEIN” (Aprea Therapeutics AB, priority 2019, published 2022):
# Like-named read-outs stand apart in the source and are kept apart here.
# Tests used:
# [1] = system: KG-1; experiment: CellTiter-Glo cell viability, 72 h, single agents and combination dose matrix; assay type: cell-based; conditions: Homo sapiens
# Method: (§1) For cell lines KBM3, KG-1 and HL-60: IMEM (Sigma Cat. no. I3390), 20% FBS (Sigma Cat. no. F084) and 1% L-glutamine (Sigma, Cat.no. G7513).
# (§2) 75 cm^2 flask (100% confluent) cells was transfer to a 15 ml tube and centrifuged at 1000 RPM for 5 min. Then supernatant was discarded, and cell pellet was resuspended in 6 ml medium. The cells were counted in the TC20 automated cell counter. 10 ml cell culture medium was prepared with 60,000 cells/ml, corresponding to 3,000 cells when 50 μl is seeded out (for MOLM-13, 12,000 cells were used). Cells were seeded in 96-well plates in column 2-12, row B-G, for blank, 100 μL cell culture medium was added. Plates were incubated overnight at 37° C.
# (§3) Combenefit 2.021 was used for data analysis.
# (§4) The CellTiter-Glo® Luminescent Cell Viability Assay is a homogeneous method of determining the number of viable cells in culture based on quantitation of the ATP present, an indicator of metabolically active cells. The homogeneous assay procedure involves adding the single reagent (CellTiter-Glo® Reagent) directly to cells cultured in serum-supplemented medium. The homogeneous “add-mix-measure” format results in cell lysis and generation of a luminescent signal proportional to the amount of ATP present. The amount of ATP is directly proportional to the number of cells present in culture.
# (§5) The experimental dose-response surface that delineates combination effects in concentration space, is first read by the Combenefit software as a matrix of % of the control value across concentrations. […] Based on the two single agent dose response curves, a model-based combination dose-response surface is derived. This surface provides a “reference” dose-response surface for a non-synergistic (additive/independent) combination, whose characteristics are determined by the selected model (i.e., Loewe, Bliss or HSA). The experimental combination dose response surface is then compared to the model-generated one, resulting in a synergy distribution in concentration space.
# (§6) This synergy distribution can be further summarized via various metrics (Di Veroli. C, Bioinformatics, 32(18), 2016, 2866-2868) as follows: • SYN_MAX—the maximum level of synergy observed. • SYN_SUM—the sum of synergy observed in concentration logarithmic space. For instance, an integrated synergy of 50 is equivalent to an extra synergistic effect of 50% which is spread over a square of 1 log×1 log in the 2-d log-concentration space.
# [2] = system: HL-60; experiment: as above; assay type: cell-based; conditions: Homo sapiens
# Method: as §1, §2, §3, §4, §5, §6
# [3] = system: KBM-3; experiment: as above; assay type: cell-based
# Method: as §1, §2, §3, §4, §5, §6
# [4] = system: MV4-11; experiment: as above; assay type: cell-based; conditions: Homo sapiens
# Method: For MV4-11: IMEM (Sigma Cat. no. I3390), 10% FBS (Sigma Cat. no. F084) and 1% L-glutamine (Sigma, Cat.no. G7513).
# as §2, §3, §4, §5, §6
# [5] = system: MOLM-13; experiment: as above; assay type: cell-based; conditions: Homo sapiens, MOLM-13, 72 h, single agent
# Method: For MOLM-13, RPMI (R8758, Sigma Aldrich)+10% FBS (F0804, Sigma Aldrich), heat inactivated at 56° C. for 60 min.
# as §2, §3, §4, §5, §6
# [6] = system: SKM-1; experiment: as above; assay type: cell-based; conditions: single agent
# Method: For SKM-1, RPMI (R8758, Sigma Aldrich)+20% FBS (F0804, Sigma Aldrich), heat inactivated at 56° C. for 60 min.
# as §2, §3, §4
# The experimental dose-response surface that delineates combination effects in concentration space, is first read by the Combenefit software as a matrix of % of the control value across concentrations. […] Based on the two single agent dose response curves, a model-based combination dose-response surface is derived. This surface provides a “reference” dose-response surface for a non-synergistic (additive/independent) combination, whose characteristics are determined by the selected model (i.e., Loewe, Bliss or HSA). The experimental combination dose response surface is then compared to the model-generated one, resulting in a synergy distribution in concentration space. […]
# [7] = system: AML cell lines; experiment: CellTiter-Glo cell viability, results summarised over the cell line panel; conditions: for IC50: read-out: IC50 values, range over cell lines
# Method: (§7) Plates was taken from the incubator to reach room temperature about 30 min. 100 μL CellTiter-Glo was added to all wells (except edge wells). Plates were then shaken on a plate shaker for 3 minutes at room temperature; thereafter the plates were set for 10 min at room temperature to allow cell lysis to appear. The luminescence was measured using the PerkinElmer Victor×4 instrument using the built-in program according to Instruction 11. Combenefit 2.021 was used for data analysis.
# (§8) For IC50 determinations, the serial dilution of compounds was performed in cell culture medium based on 1.5- or 2-fold dilution factor. The serially diluted compounds were added to the cells and incubated for 72 h followed by cell viability test using the CTG assay. For each concentration, the current viability values were calculated and IC50 values were determined by XLfit software version 5.5.0.5 (a Microsoft Excel-based plug-in to perform regression, curve fitting and statistical analysis).
# (§9) Combenefit performs combination analyses using the standard Loewe, Bliss and HSA methods. In the HSA model, the synergy score quantifies the excess over the highest single drug response. In the Loewe model, the synergy score quantifies the excess over the expected response if the two drugs are the same compound.
# (§10) A “combination index” (CI) is then calculated as the measured cell viability of the sample with two co-incubated substances divided by the predicted cell viability.
# (§11) If the measured cell viability for a combination of two substances is higher than the cell viability for one or both substances, the effect is considered antagonistic. If the predicted viability is very low, the quote “measured viability/predicted viability” may give false CI values.
# [8] = system: AML cell lines
# Method: as §7, §8, §9, §10, §11
# [9] = KG-1 (AML, p53 Intron6/splice), single agent
# [10] = HL-60 (AML, p53 Null (deletion)), single agent
# [11] = KBM-3 (AML, p53 WT), single agent
# [12] = MV4-11 (AML, p53 R248W), single agent
# [13] = MOLM-13 (AML, p53 WT), separate study of Example 3
# [14] = Homo sapiens, SKM-1 (MDS, p53 R248Q)
"IC50 [2, 10]","IC50 [4, 12]","IC50 ([5]; MOLM-13 (AML, p53 WT))","IC50 [6, 14]","IC50 ([2]; HL-60, single agent, Example 4)","IC50 ([4]; MV4-11, single agent, Example 4)","IC50 ([5]; MOLM-13, Example 4)",Structure (SMILES),"IC50 [1, 9]","IC50 [3, 11]","IC50 [5, 13]",single agent anti-proliferative activity [7],single agent cytotoxic activity ([7]; MOLM-13 and SKM-1),"IC50 ([7]; single agent, cell lines of Table 3)",IC50 [7],"IC50 ([3]; KBM-3, single agent, Example 3)","IC50 ([4]; MV4-11, single agent, Example 3)","IC50 ([6]; SKM-1 (MDS/AML, p53 R248Q homo/hemizygous), separate study of Example 3)",single agent cytotoxic activity [8],"IC50 ([1]; KG-1, single agent, Example 4)","IC50 ([3]; KBM-3, single agent, Example 4)"
60 nM,160 nM,1 nM,70 nM,–,–,–,"CC1(C)CCC(CN2CCN(c3ccc(C(=O)NS(=O)(=O)c4ccc(NCC5CCOCC5)c([N+](=O)[O-])c4)c(Oc4cnc5[nH]ccc5c4)c3)CC2)=C(c2ccc(Cl)cc2)C1 [ABT-199, 2-(1H-pyrrolo[2,3-b]pyridin-5-yloxy)-4-(4-((2-(4-chlorophenyl)-4,4-dimethylcyclohex-1-enyl)methyl)piperazin-1-yl)-N-(3-nitro-4-(((tetrahydro-2H-pyran-4-yl)methyl)amino)phenylsulfonyl)benzamide]",1500 nM,1360 nM,1.4 nM,dose-dependent anti-proliferative activity,dose-dependent cytotoxic activity,1 to 1500 nM,–,–,–,–,–,–,–
8100 nM,2500 nM,9500 nM,1090 nM,–,–,–,"COCC1(CO)C(=O)C2CCN1CC2 (stereo not drawn) [APR-246, 2-(hydroxymethyl)-2-(methoxymethyl)quinuclidin-3-one]",11000 nM,3700 nM,–,dose-dependent anti-proliferative activity,–,–,1000 to 11000 nM,–,–,–,–,–,–
–,–,–,–,–,–,–,"O=C1C2CCN(CC2)C1CNC(=O)C(F)(F)F (stereo not drawn) [Compound A, 2,2,2-trifluoro-N-((3-oxoquinuclidin-2-yl)methyl)acetamide]",–,–,3600 nM,–,–,–,–,1700 nM,1000 nM,660 nM,dose-dependent cytotoxic activity,–,–
–,–,–,–,7 nM,1.4 nM,2 nM,"COc1ccccc1-c1nccc(COc2ccccc2CC(Oc2ncnc3sc(-c4ccc(F)cc4)c(-c4ccc(OCCN5CCN(C)CC5)c(Cl)c4C)c23)C(=O)O)n1 (stereo in doubt) [MIK665, (R)-2-((5-(3-chloro-2-methyl-4-(2-(4-methylpiperazin-1-yl)ethoxy)phenyl)-6-(4-fluorophenyl)thieno[2,3-d]pyrimidin-4-yl)oxy)-3-(2-((2-(2-methoxyphenyl)pyrimidin-4-yl)methoxy)phenyl)propanoic acid]",–,–,–,dose-dependent anti-proliferative activity,–,–,1 to 600 nM,–,–,–,–,600 nM,40 nM
